Assay results: patent US5733931A, “Cyclohexanediurea derivative and process for its production” (Nissin Food Products Co., Ltd., priority 1993, dated 1998)

Tests used:
serum cholesterol [1] = assay: Serum cholesterol lowering effect in rat having high cholesterol [3-1]; assay type: in vivo, SD-type (Sprague-Dawley) male rat; conditions: oral, once a day for 5 days, dissolved in saline, Table 12
Description: 3) Cholesterol Lowering Effect
[3-1] Using a rat having high cholesterol, compounds of the invention were tested for their serum cholesterol lowering effects by the following method. A 6-week-old SD-type (Sprague-Dawley) male rat was fed with food containing 1% of cholesterol, 0.5% of cholic acid and 5% of olive oil for 2 days and then orally administered the food and a compound of the invention as dissolved in saline once a day for 5 days starting on day 3. Four hours after the final administration, a blood sample was taken. The total cholesterol in the serum of the test group was measured and compared with that of the control group.

[2] = molecular target: ACAT (Acyl-CoA: cholesterol acyltransferase) enzyme of rabbit liver microsome; assay: Inhibitory effect on ACAT enzyme (No.1), rabbit liver microsome; assay type: biochemical; conditions: Table 9
Description: 1) Inhibitory effect on ACAT (Acyl-CoA: cholesterol acyltransferase) enzyme (No.1)
Compounds of the invention were tested for their inhibitory effects on ACAT enzyme of rabbit liver microsome by the method of J. G. Heider (J. of Lipid Res., vol. 24, 1127-1134, 1983). More specifically, the test was done by measuring the amount of labelled cholesterol oleate ester produced from oleic acid CoA (coenzyme A) labelled by radiation.

serum cholesterol [3] = assay: Serum cholesterol lowering effect in rat having high cholesterol [3-2]; assay type: in vivo, SD-type (Sprague-Dawley) male rat; conditions: oral, once a day for the last 5 days, Tween 80 and saline suspension, Table 13
Description: [3-2] Using a rat having high cholesterol, compounds of the invention were tested for their serum cholesterol lowering effects by the following method. A 6-week-old SD-type (Sprague-Dawley) male rat was fed with food containing 1% of cholesterol, 0.5% of cholic acid and 5% of olive oil for 7 days. For the last 5 days, a test sample suspended in some drops of Tween 80 and saline was orally administered once a day. Four hours after the final administration, a blood sample was taken from celiac aorta of the rat under etherization. The total cholesterol in the serum of the test group was measured by the oxygen method and compared with that of the control group.

SMILES | Cholesterol lowering effect, % (serum total cholesterol vs control group) (serum cholesterol [1]; 3 mg/kg) [%] | Cholesterol lowering effect, % (serum total cholesterol vs control group) (serum cholesterol [1]; 10 mg/kg) [%] | IC50 [2] [nM] | Cholesterol lowering effect, % (serum total cholesterol vs control group) (serum cholesterol [3]; 1 mg/kg) [%] | Cholesterol lowering effect, % (serum total cholesterol vs control group) (serum cholesterol [3]; 3 mg/kg) [%]
CN(C)c1ccc(NC(=O)N(C[C@H]2CC[C@H](CN(C(=O)Nc3ccc(N(C)C)cc3)C3CCCCCC3)CC2)C2CCCCCC2)cc1 [Example 15, Trans-1,4-bis[[1-cycloheptyl-3-(4-dimethylaminophenyl)ureido]methyl]cyclohexane] | 93 | 99 | 38 |  | 
CN(C)c1ccc(NC(=O)N(CC(C)(C)C)C[C@H]2CC[C@H](CN(CC(C)(C)C)C(=O)Nc3ccc(N(C)C)cc3)CC2)cc1 [Example 7, Trans-1,4-bis[[3-(4-dimethylaminophenyl)-1-neopentylureido]methyl]cyclohexane] | 105 | 103 | 100 |  | 
CN(C)c1ccc(NC(=O)N(C[C@H]2CCC[C@H](CN(C(=O)Nc3ccc(N(C)C)cc3)C3CCCCCC3)C2)C2CCCCCC2)cc1 (relative stereo) [Example 61, Trans-1,3-bis[[1-cycloheptyl-3-(4-dimethylaminophenyl)ureido]methyl]cyclohexane] | 48 | 82 | 36 |  | 
O=C(Nc1ccc(N2CCOCC2)cc1)N(C[C@H]1CC[C@H](CN(C(=O)Nc2ccc(N3CCOCC3)cc2)C2CCCCC2)CC1)C1CCCCC1 [Example 14-4, Trans-1,4-bis[[1-cyclohexyl-3-(4-morpholinophenyl)ureido]methyl]cyclohexane] |  |  |  | 79.9 | 98.8
CN(C)c1ccc(NC(=O)N(C[C@@H]2CCC[C@H](CN(C(=O)Nc3ccc(N(C)C)cc3)C3CCCCCC3)C2)C2CCCCCC2)cc1 [Example 83, Cis-1,3-bis[[1-cycloheptyl-3-(4-dimethylaminophenyl)ureido]methyl]cyclohexane] | 43 | 91 | 46 |  | 
CN(C)c1ccc(NC(=O)N(C[C@H]2CC[C@@H](CN(C(=O)Nc3ccc(N(C)C)cc3)C3CCCCCC3)CC2)C2CCCCCC2)cc1 [Example 43, Cis-1,4-bis[[1-cycloheptyl-3-(4-dimethylaminophenyl)ureido]methyl]cyclohexane] | 88 | 107 | 50 |  | 
CN(C)c1ccc(NC(=O)N(C[C@H]2CC[C@@H](CN(C(=O)Nc3ccc(N(C)C)cc3)C3CCCCC3)CC2)C2CCCCC2)cc1 [Example 42, Cis-1,4-bis[[1-cyclohexyl-3-(4-dimethylaminophenyl)ureido]methyl]cyclohexane] | 110 | 102 | 60 |  | 
CN(C)c1ccc(NC(=O)N(C[C@H]2CC[C@H](CN(C(=O)Nc3ccc(N(C)C)cc3)C3CCCC3)CC2)C2CCCC2)cc1 [Example 11, Trans-1,4-bis[[1-cyclopentyl-3-(4-dimethylaminophenyl)ureido]methyl]cyclohexane] | 108 | 101 | 47 |  | 
